According to PubChem BioAssay (NCI):
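Compound exposure: 48 hours, 5 concentrations, 96-well plates. GI50 is the concentration that inhibits growth by half. Definition used: TGI = concentration required for complete inhibition of growth.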

Tests used:
Assay in all cases: NCI anticancer screen, dose series, 48 h
TK-10 renal = tested on: TK-10 renal
HOP-92 NSCLC = tested on: HOP-92 NSCLC
BT-549 breast = tested on: BT-549 breast
NCI-H23 lung = tested on: NCI-H23 lung
SF-295 CNS = tested on: SF-295 CNS
NCI/ADR-RES ovarian = tested on: NCI/ADR-RES ovarian
NCI-H522 lung = tested on: NCI-H522 lung
HCC-2998 colon = tested on: HCC-2998 colon
SK-MEL-2 melanoma = tested on: SK-MEL-2 melanoma
A549 NSCLC = tested on: A549 NSCLC

Compound | GI50 (TK-10 renal) [µM] | TGI (TK-10 renal) [µM] | GI50 (HOP-92 NSCLC) [µM] | TGI (HOP-92 NSCLC) [µM] | GI50 (BT-549 breast) [µM] | TGI (BT-549 breast) [µM] | GI50 (NCI-H23 lung) [µM] | TGI (NCI-H23 lung) [µM] | GI50 (SF-295 CNS) [µM] | TGI (SF-295 CNS) [µM] | GI50 (NCI/ADR-RES ovarian) [µM] | TGI (NCI/ADR-RES ovarian) [µM] | GI50 (NCI-H522 lung) [µM] | TGI (NCI-H522 lung) [µM] | GI50 (HCC-2998 colon) [µM] | TGI (HCC-2998 colon) [µM] | GI50 (SK-MEL-2 melanoma) [µM] | TGI (SK-MEL-2 melanoma) [µM] | GI50 (A549 NSCLC) [µM] | TGI (A549 NSCLC) [µM]
Cc1cc(N(CCNc2ccnc3cc(Cl)ccc23)Cc2ccco2)nc(Cl)n1 | 1.81 | 3.21 | 1.47 | 2.94 | 1.69 | 3.14 | 1.77 | 3.93 | 1.51 | 3 | 1.86 | 3.96 | 1.75 | 3.71 | 1.72 | 3.3 | 1.9 | 3.83 | 1.85 | 3.42
C[C@@H](CO)[C@@H]1CCC=C2CC[C@]3(C)[C@H](CC[C@@H]4[C@@]5(C)CCCNC(C)(C)[C@@H]5CC[C@]43C)[C@H]21 | 8.36 | 24.8 | 1.87 | 8.71 | 5.11 | 24.9 | 3.94 | 14.3 | 1.66 | 3.11 | 2.05 | 4.45 | 1.85 | 3.86 | 1.62 | 3.11 | 2.08 | 4.29 | 2.24 | 5.04
CN(CC(=O)N(Cc1ccc(C2CCCCC2)cc1)c1ccc(C(=O)O)c(O)c1)S(=O)(=O)c1c(F)c(F)c(F)c(F)c1F | 16.5 | 30.4 | 1.95 | 8.91 | 10.9 | 23.6 | 10.6 | 26.9 | 17.4 | 37.2 | 17.2 | 38.1 | 2.74 | 8.51 | 2.37 | 5.72 | 2.2 | 4.76 | 14.9 | 31.7
COc1cc2c3c(n(CCCI)c(=O)c2cc1OC)-c1cc2c(cc1C3=O)OCO2 | 14.7 | 57 | > 100 | > 100 | 1.82 | 9.44 | 7.24 | > 100 | 0.776 | > 100 | 27.3 | > 100 | 8.32 | > 100 | 5.61 | > 100 | > 100 | > 100 | 2.5 | > 100
CN(C)c1ccc(Nc2cc(-c3cccc(OC(F)(F)F)c3)nc3ccc(N4CCCC4)cc23)cc1 | 1.84 | 3.3 | 1.71 | 3.71 | 1.96 | 3.58 | 2.06 | 4.39 | 1.83 | 3.57 | 1.92 | 3.88 | 2.03 | 4.73 | 1.85 | 3.36 | 12.4 | 26.5 | 1.7 | 3.22
COc1ccc(-c2nc3ccccn3c2/C=C/C(=O)c2cc(OC)c(OC)c(OC)c2)cc1 | 4.16 | > 100 | 2.36 | 51.4 | 3.27 | > 100 | 3.41 | 94.1 | 15.2 | 69.5 | 3.36 | 29.4 | 3.12 | 23.4 | 8.27 | 42 | 4.95 | > 100 | 7.96 | > 100
CN1CCN(c2ccc3nc(-c4ccc5nc(-c6ccc(OCCC(C)(C)C)cc6)[nH]c5c4)[nH]c3c2)CC1 | 18.2 | 38.8 | 14.3 | 33.2 | 17.5 | 40.1 | 15.1 | 33 | 2.34 | 6.22 | 35.7 | > 100 | 13.6 | 38.1 | 5.06 | 18.5 | 19.7 | 38.5 | 4.69 | 17.7
Nc1nc(-c2ccccc2)nc(N)c1N=O | 4.68 | 14.8 | 5.32 | 23.5 | 6.44 | 19.1 | 14.6 | 41.9 | 18.1 | 52.9 | 6.44 | 59.6 | 2.27 | 7.27 | 14.1 | 27.6 | 19.5 | 41.6 | 8.86 | 23.3
COc1cc(Nc2ccnc(NCCCNc3ccnc4cc(Cl)ccc34)n2)cc(OC)c1 | 1.81 | 3.63 | 0.431 | 2.69 | 1.79 | 4.42 | 2.67 | 10.2 | 1.37 | 2.78 | 2.9 | 12.5 | 1.8 | 3.78 | 1.58 | 3.36 | 1.91 | 3.54 | 2.09 | 5.46
Fc1ccc(Nc2nc3nonc3nc2Nc2ccc(F)cc2)cc1 | 0.435 | 6.74 | 0.168 | 0.629 | 0.309 | 2.77 | 0.264 | 0.852 | 0.271 | 1.26 | 0.329 | 2.76 | 0.194 | 0.561 | 0.414 | 5.49 | 0.285 | 0.807 | 0.354 | 11.4
O=[N+]([O-])c1c(Br)sc(Br)c1[N+](=O)[O-] | 2.31 | 6.18 | 1.87 | 3.57 | 16.1 | 29.7 | 11.3 | 28.9 | 14.2 | 28.6 | 3.3 | 23.8 | 0.613 | 1.95 | 12.3 | 26.2 | 2.79 | 10.3 | 13.7 | 41.5
Nc1nc(-c2ccc(F)cc2)c(-c2ccc3ncccc3n2)s1 | 5.62 | 17.1 | 0.268 | 24.6 | 16.1 | > 25 | 15.6 | > 25 | > 21 | > 25 | 21.7 | > 25 | 8.31 | > 25 | > 25 | > 25 | > 25 | > 25 | 13.7 | > 25
